Measured values taken from PMC6627609, “Targeting Quorum Sensing: High-Throughput Screening to Identify Novel LsrK Inhibitors” (International Journal of Molecular Sciences, 2019).
Counter-ions that a name gives are not always drawn.

molecular target: LsrK (Salmonella typhimurium, UniProt Q8ZKQ6); assay: biochemical; type: biochemical, S. typhimurium; settings: not given
Sequence (Q8ZKQ6 whole entry): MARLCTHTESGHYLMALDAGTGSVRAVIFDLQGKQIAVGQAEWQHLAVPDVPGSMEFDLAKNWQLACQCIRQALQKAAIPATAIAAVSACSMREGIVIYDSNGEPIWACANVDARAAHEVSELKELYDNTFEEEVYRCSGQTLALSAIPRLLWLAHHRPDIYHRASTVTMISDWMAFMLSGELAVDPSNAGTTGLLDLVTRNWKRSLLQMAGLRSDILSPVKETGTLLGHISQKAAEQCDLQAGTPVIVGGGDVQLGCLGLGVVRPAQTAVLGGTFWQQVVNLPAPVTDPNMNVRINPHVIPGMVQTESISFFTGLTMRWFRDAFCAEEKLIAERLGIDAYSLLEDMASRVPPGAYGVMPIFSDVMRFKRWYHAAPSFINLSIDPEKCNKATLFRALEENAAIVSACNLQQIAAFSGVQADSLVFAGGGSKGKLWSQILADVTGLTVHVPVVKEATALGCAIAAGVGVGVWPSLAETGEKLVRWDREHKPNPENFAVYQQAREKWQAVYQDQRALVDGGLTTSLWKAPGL

Structure (SMILES) | inhibition at 50 µM [%]
CC(COc1ccccc1)NC(C)C(O)c1ccc(O)cc1 (stereo not shown) [ISOXSUPRINE HYDROCHLORIDE] | 2
O=C(O)/C=C/C=C/c1ccccc1 [JUAREZIC ACID] | 1
O=C1C=CC(=O)c2c(O)cccc21 [JUGLONE] | 88
O=c1c(O)c(-c2ccc(O)cc2)oc2cc(O)cc(O)c12 [KAEMPFEROL] | 0
COC1=CC(=O)O[C@@H](/C=C/c2ccccc2)C1 [KAWAIN] | 0
O=C(c1ccccc1)c1ccc2n1CCC2C(=O)O (stereo not shown) [KETOROLAC TROMETHAMINE] | 0
CN1CCC(=C2c3ccccc3CC(=O)c3sccc32)CC1 [KETOTIFEN FUMARATE] | 1
OC[C@H]1O[C@@H](n2cnc3c(NCc4ccco4)ncnc32)[C@H](O)[C@@H]1O [KINETIN RIBOSIDE] | 0
CC1(C)C[C@@H]2C(=O)CC[C@H]3O[C@]3(C)CC[C@H]21 [KOBUSONE] | 1
COc1ccc(-c2coc3cc(O)ccc3c2=O)c(O)c1O [KOPARIN] | 118
Cc1c(OCC(F)(F)F)ccnc1C[S+]([O-])c1nc2ccccc2[nH]1 (stereo not shown) [LANSOPRAZOLE] | 33
CC(C)=CCC1=C(O)C(=O)c2ccccc2C1=O [LAPACHOL] | 1
Cc1cc(OC(=O)c2c(C)cc(O)cc2O)cc(O)c1C(=O)O [LECANORIC ACID] | 0
COC(=O)c1c(C)c2c(c(C)c1O)OC(=O)c1c(C)c(Cl)c(O)c(Cl)c1O2 [LEOIDIN] | 83
Nc1nc2c(c(=O)[nH]1)N(C=O)C(CNc1ccc(C(=O)N[C@@H](CCC(=O)O)C(=O)O)cc1)CN2 (stereo partly shown) [LEUCOVORIN CALCIUM] | 5
CC(C)(C)NC[C@H](O)c1ccc(O)c(CO)c1 [LEVALBUTEROL HYDROCHLORIDE] | 8
c1ccc([C@H]2CN3CCSC3=N2)cc1 [LEVAMISOLE HYDROCHLORIDE] | 1
N[C@@H](Cc1ccc(O)c(O)c1)C(=O)O [LEVODOPA] | 77
C[C@H](N)[C@H](O)c1ccc(O)c(O)c1 [LEVONORDEFRIN] | 123
CCC[C@@H]1C[C@@H](C(=O)N[C@@H]([C@H]2O[C@H](SC)[C@H](O)[C@@H](O)[C@H]2O)[C@@H](C)O)N(C)C1 [LINCOMYCIN HYDROCHLORIDE] | 0
CCCCCc1c2c(cc(O)c1C(=O)O)OC(=O)c1c(cc(OC)cc1C(=O)CCCC)O2 [LOBARIC ACID] | 98
CN1[C@@H](CC(=O)c2ccccc2)CCC[C@H]1C[C@H](O)c1ccccc1 [LOBELINE HYDROCHLORIDE] | 1
CCn1cc(C(=O)O)c(=O)c2cc(F)c(N3CCNC(C)C3)c(F)c21 (stereo not shown) [LOMEFLOXACIN HYDROCHLORIDE] | 0
CCOC(=O)N1CCC(=C2c3ccc(Cl)cc3CCc3cccnc32)CC1 [LORATADINE] | 2
O=C(NC(=O)c1c(F)cccc1F)Nc1cc(Cl)c(OC(F)(F)C(F)C(F)(F)F)cc1Cl (stereo not shown) [LUFENURON] | 2

Structure (SMILES) | inhibition at 50 µM [%]
O=C(O)CCC1NCC2CC1CN1CCCCC21 (stereo not shown) [LUPANYL ACID HYDROCHLORIDE] | 1
NCc1ccc(S(N)(=O)=O)cc1 [MAFENIDE HYDROCHLORIDE] | 1
O=c1c2cc(O)c(O)cc2oc2cc(O)c([C@@H]3O[C@H](CO)[C@@H](O)[C@H](O)[C@H]3O)c(O)c12 [MANGIFERIN] | 14
COC(=O)Nc1nc2ccc(C(=O)c3ccccc3)cc2[nH]1 [MEBENDAZOLE] | 1
CCN(CCCCOC(=O)c1ccc(OC)c(OC)c1)C(C)Cc1ccc(OC)cc1 (stereo not shown) [MEBEVERINE HYDROCHLORIDE] | 1
Cc1ccc(Cl)c(Nc2ccccc2C(=O)O)c1Cl [MECLOFENAMATE SODIUM] | 6
COC(=O)C(N)CS (stereo not shown) [MECYSTEINE HYDROCHLORIDE] | 112
CC(=O)O[C@]1(C(C)=O)CC[C@H]2[C@@H]3C[C@H](C)C4=CC(=O)CC[C@]4(C)[C@H]3CC[C@@]21C [MEDROXYPROGESTERONE ACETATE] | 1
Cc1cccc(Nc2ccccc2C(=O)O)c1C [MEFENAMIC ACID] | 1
OC(c1cc(C(F)(F)F)nc2c(C(F)(F)F)cccc12)C1CCCCN1 (stereo not shown) [MEFLOQUINE] | 32
CNC[C@H](O)[C@@H](O)[C@H](O)[C@H](O)CO [MEGLUMINE] | 1
COc1ccc2[nH]cc(CCNC(C)=O)c2c1 [MELATONIN] | 1
C=C1C[C@H]2[C@@H]3C=C(C)C4=CC(=O)CC[C@]4(C)[C@H]3CC[C@]2(C)[C@@]1(OC(C)=O)C(C)=O [MELENGESTROL ACETATE] | 1
OC[C@H]1O[C@@](CO)(O[C@H]2O[C@H](CO)[C@@H](O)[C@H](O)[C@H]2O)[C@@H](O[C@H]2O[C@H](CO)[C@@H](O)[C@H](O)[C@H]2O)[C@@H]1O [MELEZITOSE] | 2
Cc1cnc(NC(=O)C2=C(O)c3ccccc3S(=O)(=O)N2C)s1 [MELOXICAM SODIUM] | 0
C[N+]1(C)CCCC(OC(=O)C(O)(c2ccccc2)c2ccccc2)C1 (stereo not shown) [MEPENZOLATE BROMIDE] | 3
Cc1ccccc1OCC(O)CO (stereo not shown) [MEPHENESIN] | 1
Cc1cccc(C)c1NC(=O)C1CCCCN1C (stereo not shown) [MEPIVACAINE HYDROCHLORIDE] | 15
S=c1[nH]cnc2nc[nH]c12 [MERCAPTOPURINE] | 1
Nc1ccc(O)c(C(=O)O)c1 [MESALAMINE] | 105
CC(=O)Nc1cccc(O)c1 [METACETAMOL] | 1
CC(C)NCC(O)c1cc(O)cc(O)c1 (stereo not shown) [METAPROTERENOL] | 3
C[C@H](N)[C@H](O)c1cccc(O)c1 [METARAMINOL BITARTRATE] | 9
Cc1cc(C)cc(OCC2CNC(=O)O2)c1 (stereo not shown) [METAXALONE] | 0

same assay, conditions: 50 µM

Structure (SMILES) | Inhibition (%)
C[C@H]1O[C@H](OC2[C@@H](O)[C@@H](O)C(O)[C@H](O)[C@H]2O)[C@@H](N)C[C@@H]1N=C(N)C(=O)O.Cl (stereo partly shown) [KASUGAMYCIN HYDROCHLORIDE] | 1
CCCCS(=N)(=O)CCC(N)C(=O)O [L-BUTHIONINE SULFOXIMINE] | 20
CC(=O)O[C@H]1CC[C@]2(C)C3=C(CC[C@H]2C1(C)C)[C@]1(C)CC[C@H]([C@H](C)CCC=C(C)C)[C@@]1(C)CC3 [LANOSTEROL ACETATE] | 1
Cc1occc(=O)c1O [LARIXINIC ACID] | 1
C=C[C@@](C)(O)CC[C@H]1C(=C)C[C@H](OC(C)=O)[C@H]2C(C)(C)CCC[C@]12C [LARIXOL ACETATE] | 3
C=C[C@@](C)(O)CC[C@H]1C(=C)C[C@H](O)[C@H]2C(C)(C)CCC[C@]12C [LARIXOL] | 1
OC[C@H]1O[C@H](OCC2O[C@@H](O)[C@H](O)[C@@H](O)[C@@H]2O)[C@H](O)[C@@H](O)[C@H]1O (stereo partly shown) [MELIBIOSE] | 3
O=C([O-])c1ccccc1-c1c2cc(Br)c(=O)cc-2oc2[c]([Hg+])c([O-])c(Br)cc12.[Na+].[Na+].[OH-] [MERBROMIN] | 119
C=N[C@@H](C(=O)N[C@@H]1C(=O)N2[C@@H]1SC(C)(C)[C@@H]2C(=O)[O-])c1ccccc1.[Na+] [METAMPICILLIN SODIUM] | 2
